Viability and IC50 data for two compounds are collected here from patent US20190054064A1, “VITAMIN C AND VITAMIN K COMPOUND FOR TREATING PANCREATIC CANCER” (IC-MedTech Corp., priority 2014, published 2019).

Test [1] has as its system human pancreatic cancerous cell line MIA PaCa-2. In words: Soft agar growth assay (Alamar Blue), Example 1. The format is cell-based. As to conditions: 240 h, MIA PaCa-2, soft agar, 10 days. How it is done:
The effects of vitamins C and K3, alone or in combination, on pancreatic cancer were studied using human pancreatic cancerous cell line MIA PaCa-2. The pancreatic cancerous cells were cultured in DMEM containing 10% FCS and penicillin/streptomycin.
Vitamins C and K3 stock solutions in DMSO were prepared at a concentration of 2 M and 20 mM, respectively. Actinomycin D was used as a reference.
Prior to addition to the pancreatic cancerous cells, stock solutions of the test compounds (vitamins C and K3, and actinomycin D) were diluted in culture medium and 10 μL were added on top of 150 μL of solidified soft agar to diffuse into the soft agar in a 96-well plate. For each well in the 96-well plate, 100 μL of the soft agar bottom layer (0.6% final concentration in complete medium) was poured and left to solidify, and 50 μL of the soft agar top layer (0.4% final concentration) containing the pancreatic cancerous cells (about 5,000 cells/well) were then added on top, solidified. The 96-well plate was incubated overnight at 37° C., 10% CO2. The next day, the test compounds were added at the prescribed final concentrations into the inner wells of the plate. Subsequently, the assays were incubated in cell culture incubators for 10 days. […] Fluorescence intensity was then determined (excitation: 560 nm; emission: 590 nm). […]
Background: Resazurin is reduced to fluorescent resorufin, in cell work by metabolically active cells.

For test [2], the system named is Mia PaCa-2. In words: Soft agar growth assay (Alamar Blue), Example 2, Mia PaCa-2. Format: cell-based, human. As to conditions: Mia PaCa-2, soft agar, 8 days. How it is done:
(§1) A stock solutions (1,000×) of menadione (VK3) were prepared in DMSO and a stock solution of calcium L-ascorbate dihydrate (VC) (1,000×) was prepared in water. All stock solutions were prediluted 1:62.5 first in medium and finally diluted to the final assay concentrations. Actinomycin D was used as a reference.
(§2) Suspension cell culture plates (96-well) were prepared. The soft agar bottom layer (100 μL, 0.6% final concentration in complete medium) was poured and left to solidify. The soft agar top layer (50 μL, 0.4% final concentration) containing the corresponding cells and cell number were then added on top, solidified, and incubated overnight at 37° C., 10% CO2. Next day, the test compounds, DMSO, or actinomycin D were added at predetermined final concentrations. […] Finally, the assay was developed using Alamar Blue and upon 0.5-5 hrs of incubation at 37° C. and fluorescence intensity was determined (excitation: 560 nm; emission: 590 nm). […]
(§3) Raw data were converted into percent soft agar growth relative to high controls (solvent 0.2% DMSO) and low controls (10^−5M staurosporine), which were set to 100% and 0%, respectively. IC50 values were calculated using standard parameters based on the signal of the solvent control as top constraint (100% soft agar growth) and the signal of the Staurosporine control as bottom constraint (0% soft agar growth).

The subject of test [3] is AsPC-1. Put plainly: Soft agar growth assay (Alamar Blue), Example 2, AsPC-1. As to conditions: AsPC-1, soft agar, 10 days. The format is cell-based, human. How it is done:
as §1, §2, §3

Structures are written as SMILES. Starred links: 1 amine or outer side, 2 acyl side, 3 side chain; linkers in the order of their positions; H or OH if unused. Positions of bridges follow the written chain, without caps; N, C: chain ends. Non-standard residues stand in square brackets, D forms with d. Residues, ends and D or L forms follow the SMILES beside them. Chains are numbered I, II in the order given. Actinocin(9to1) = Cc1c2oc3c(C)ccc(C(=O)[*:1])c3nc-2c(C(=O)[*:2])c(N)c1=O; NMeV = CN[C@H](C(=O)O)C(C)C; Sar = CNCC(=O)O

In the case of `CC1=CC(=O)c2ccccc2C1=O` [Vitamin K3, 2-methyl-1,4-naphthoquinone], the viability at 0.6 µM in test [1] (0.6 μM Vitamin K3 alone) amounted to 103.2 ± 0.9%. The viability at 6 µM in test [1] (6 μM Vitamin K3 alone) amounted to 90.2 ± 12.5%.

In the case of `Cc1c2oc3c(C)ccc(C(=O)N[C@@H]4C(=O)N[C@H](C(C)C)C(=O)N5CCC[C@H]5C(=O)N(C)CC(=O)N(C)[C@@H](C(C)C)C(=O)O[C@@H]4C)c3nc-2c(C(=O)N[C@@H]2C(=O)N[C@H](C(C)C)C(=O)N3CCC[C@H]3C(=O)N(C)CC(=O)N(C)[C@@H](C(C)C)C(=O)O[C@@H]2C)c(N)c1=O` [Actinomycin D] (I: T[dV]P[Sar][NMeV] / II: T[dV]P[Sar][NMeV]; ester I:1-I:C, II:1-II:C; linker I:N-II:N via Actinocin(9to1)), the IC50 in test [2] came to 0.4 nM; in test [3], 2.7 nM.

What is called viability is a read-out of living cells in per cent, often relative to untreated cells. The term IC50 denotes the midpoint of a concentration-inhibition curve. A higher IC50 goes with weaker potency.
